{"source": "ChEMBL document CHEMBL1128964", "about": "“Synthesis and analgesic activity of Epibatidine analogues” (Bioorg Med Chem Lett, 1996)", "key": {"Mus musculus [1]": {"system": "Mus musculus", "assay": "Compound was tested for analgesic activity in mice after intraperitoneal administration at a dose of 10 ug/kg; less potent", "assay_type": "functional, organism-based"}, "[2]": {"assay": "Lethal dose determined in Mice", "assay_type": "toxicity", "conditions": "mouse, in vivo"}, "Mus musculus [3]": {"system": "Mus musculus", "assay": "Dose of compound that caused analgesic activity in mice after intraperitoneal administration", "assay_type": "functional"}, "Mus musculus [4]": {"system": "Mus musculus", "assay": "Compound was tested for analgesic activity in mice after intraperitoneal administration at a dose of 10 ug/kg; Significant", "assay_type": "functional, organism-based"}}, "note": "Calls of active or inactive are those of the source. The rule behind the calls is not given here."}
{"smiles": "Clc1ccc(C2CCNC2)cn1", "note": "(centres undefined)", "values": [{"measurement": "Activity", "setting": "Mus musculus [1]", "value": "less potent"}]}
{"smiles": "Clc1ccc(C2CC3CCCC2N3)cn1", "note": "(centres undefined) [HOMOEPIBATIDINE]", "values": [{"measurement": "LD50", "setting": "[2]", "value": 10, "unit": "mg/kg"}, {"measurement": "Dose", "setting": "Mus musculus [3]", "value": 0.04, "unit": "mg/kg"}]}
{"smiles": "Clc1ccc(C2CC3CCC2N3)cn1", "note": "(racemic)", "values": [{"measurement": "Activity", "setting": "Mus musculus [4]", "value": "Active"}]}
